According to US10493070B2 (priority 2016, dated 2019):

Each compound was assayed on recombinant NL4-3 virus (NLRluc, Renilla luciferase in nef, Gag P373S) (assay: HIV cell culture assay (Renilla luciferase reporter virus in MT-2 cells)). Details: Renilla, NL43, read-out: 10% FBS EC50, 10% FBS, class symbols A/B/C.
Type: cell-based
Experimental: MT-2 cells and 293T cells were obtained from the NIH AIDS Research and Reference Reagent Program. MT-2 cells were propagated in RPMI 1640 media supplemented with 10% heat inactivated fetal bovine serum, […]. The 293T cells were propagated in DMEM media supplemented with 10% heat inactivated fetal bovine serum (FBS), 100 units/ml penicillin G and 100 μg/ml streptomycin. The proviral DNA clone of NL4-3 was obtained from the NIH AIDS Research and Reference Reagent Program. A recombinant NL4-3 virus, in which a section of the nef gene from NL4-3 was replaced with the Renilla luciferase gene, was used as a reference virus. In addition, residue Gag P373 was converted to P373S. Briefly, the recombinant virus was prepared by transfection of the altered proviral clone of NL4-3. Transfections were performed in 293T cells using LipofectAMINE PLUS from Invitrogen (Carlsbad, Calif.), according to manufacturer's instruction. The virus was titered in MT-2 cells using luciferase enzyme activity as a marker. Luciferase was quantitated using the Dual Luciferase kit from Promega (Madison, Wis.), with modifications to the manufacturer's protocol. The diluted Passive Lysis solution was pre-mixed with the re-suspended Luciferase Assay Reagent and the re-suspended Stop & Glo Substrate (2:1:1 ratio). Fifty (50) μL of the mixture was added to each aspirated well on assay plates and luciferase activity was measured immediately on a Wallac TriLux (Perkin-Elmer). Antiviral activities of inhibitors toward the recombinant virus were quantified by measuring luciferase activity in cells infected for 4-5 days with NLRluc recombinants in the presence serial dilutions of the inhibitor. Table 16 is the key for the data in Table 17.

Q: How did the EC50 turn out when `CC1(C)C(c2ccc(C(=O)O)cc2)=CC[C@]2(C)CN(c3ccc(-c4nnn(CCN5CCS(=O)(=O)CC5)n4)cc3)CC=C12` [Example B5] was run?
A: > 3 µM

Q: Which EC50 does the source give for `CC1(C)C(c2ccc(C(=O)O)cc2)=CC[C@]2(C)CN(c3cc(F)cc(-c4nnn(CCN5CCS(=O)(=O)CC5)n4)c3)CC=C12` [Example B8] here?
A: < 0.5 µM

Q: `CN(C)c1ccc(C(=O)N2CC=C3C(C)(C)C(c4ccc(C(=O)O)cc4)=CC[C@]3(C)C2)cc1` [Example 25] was tested. Which EC50 did it give?
A: > 3 µM

Q: With `Cc1cc2nc(-c3ccccc3C(=O)N3CC=C4C(C)(C)C(c5ccc(C(=O)O)cc5)=CC[C@]4(C)C3)[nH]c2cc1Cl` [Example A254] as the compound, how does the EC50 read?
A: < 0.5 µM

Q: How did the EC50 turn out when `CC1(C)C(c2ccc(C(=O)O)cc2)=CC[C@]2(C)CN(C(=O)c3ccccc3-c3nc4cc(Cl)ccc4o3)CC=C12` [Example A332] was run?
A: < 0.5 µM

Q: Which EC50 does the source give for `CC1(C)C(c2ccc(C(=O)O)cc2)=CC[C@]2(C)CN(C(=O)c3ccccc3-c3nc4cc(Cl)c(Cl)cc4[nH]3)CC=C12` [Example A265] here?
A: < 0.5 µM

Q: How did the EC50 turn out when `CC1(C)C(c2ccc(C(=O)O)cc2)=CC[C@]2(C)CN(C(=O)c3ccccc3-c3nc4c([N+](=O)[O-])cccc4[nH]3)CC=C12` [Example A272] was run?
A: < 0.5 µM

Q: For `CC(C)(C)OC(=O)N1CCN(c2ccccc2C(=O)N2CCC3C(C)(C)C(c4ccc(C(=O)O)cc4)CC[C@]3(C)C2)CC1` (stereo partly drawn) [Example 83, 4-((8aS)-2-(2-(4-(tert-butoxycarbonyl)piperazin-1-yl)benzoyl)-5,5,8a-trimethyldecahydroisoquinolin-6-yl)benzoic acid], which EC50 is on record?
A: < 0.5 µM

Q: With `CC(C)C[C@H](NC(=O)OC(C)(C)C)C(=O)N1CCC(C(=O)N2CC=C3C(C)(C)C(c4ccc(C(=O)O)cc4)=CC[C@]3(C)C2)(c2ccccc2)CC1` [Example 93] as the compound, how does the EC50 read?
A: < 0.5 µM

Q: How did the EC50 turn out when `CC1(C)C(c2ccc(C(=O)O)cc2)=CC[C@]2(C)CN(C(=O)c3ccc(C(=O)O)cc3)CC=C12` [Example 13] was run?
A: > 3 µM

Q: Which EC50 does the source give for `CC1(C)C(c2ccc(C(=O)O)cc2)=CC[C@]2(C)CN(C(=O)c3cccc(F)c3)CC=C12` [Example 2] here?
A: > 3 µM

Q: `CC1(C)C(c2ccc(C(=O)O)cc2)=CC[C@]2(C)CN(C(=O)c3cncc(C(=O)O)c3)CC=C12` [Example 45] was tested. Which EC50 did it give?
A: > 3 µM

Q: `CC1(C)C(c2ccc(C(=O)O)cc2)=CC[C@]2(C)CN(C(=O)c3ccccc3-c3nc4cc(F)c(F)cc4[nH]3)CC=C12` [Example A267] was tested. Which EC50 did it give?
A: 0.5 to 3 µM

Q: For `CC1(C)C(c2ccc(C(=O)O)cc2)=CC[C@]2(C)CN(C(=O)c3cccc(C(=O)N4CCS(=O)(=O)CC4)c3)CC=C12` [Example 68], which EC50 is on record?
A: > 3 µM

Q: For `CC1(C)C(c2ccc(C(=O)O)cc2)=CC[C@]2(C)CN(C(=O)c3nc4ccccc4[nH]3)CC=C12` [Example A66], which EC50 is on record?
A: > 3 µM

Q: With `CC1(C)C(c2ccc(C(=O)O)cc2)=CC[C@]2(C)CN(C(=O)c3cccc(C(N)=O)c3)CC=C12` [Example 21] as the compound, how does the EC50 read?
A: > 3 µM

Q: Which EC50 does the source give for `CCn1c(-c2ccccc2C(=O)N2CC=C3C(C)(C)C(c4ccc(C(=O)O)cc4)=CC[C@]3(C)C2)nc2cc(S(C)(=O)=O)ccc21` [Example A286] here?
A: > 3 µM

Q: For `CC1(C)C(c2ccc(C(=O)O)cc2)=CC[C@]2(C)CN(C(=O)c3ccccc3C(N)=O)CC=C12` [Example 20], which EC50 is on record?
A: > 3 µM

Q: `CC1(C)C(c2ccc(C(=O)O)cc2)=CC[C@]2(C)CN(c3ncc(Br)s3)CC=C12` [Example 77] was tested. Which EC50 did it give?
A: > 3 µM

Same assay, conditions: Renilla, NL43, read-out: 10% FBS EC50, 10% FBS, numeric values

Q: With `COc1ccnc(N2CC=C3C(C)(C)C(c4ccc(C(=O)O)cc4)=CC[C@]3(C)C2)n1` [Example B13] as the compound, how does the EC50 read?
A: 2.7 µM

Q: Which EC50 does the source give for `COc1ccccc1C(=O)N1CC=C2C(C)(C)C(c3ccc(C(=O)O)cc3)=CC[C@]2(C)C1` [Example 17] here?
A: 1.69 µM

Q: With `CC1(C)C(c2ccc(C(=O)O)cc2)=CC[C@]2(C)CN(c3cc(-c4nnnn4CCN4CCS(=O)(=O)CC4)cc([N+](=O)[O-])c3)CC=C12` [Example B2, (S)-4-(2-(3-(1-(2-(1,1-dioxidothiomorpholino)ethyl)-1H-tetrazol-5-yl)-5-nitrophenyl)-5,5,8a-trimethyl-1,2,3,5,8,8a-hexahydroisoquinolin-6-yl)benzoic acid] as the compound, how does the EC50 read?
A: 0.76 µM

Q: Which EC50 does the source give for `CC1(C)C(c2ccc(C(=O)O)cc2)=CC[C@]2(C)CN(C(=O)c3ccccc3-c3nc4ccccc4o3)CC=C12` [Example A325] here?
A: 0.235 µM

Q: How did the EC50 turn out when `CC(C)(C)OC(=O)NCCn1c(-c2ccccc2C(=O)N2CC=C3C(C)(C)C(c4ccc(C(=O)O)cc4)=CC[C@]3(C)C2)nc2cc(C(F)(F)F)ccc21` [Example A283] was run?
A: 1.37 µM

Q: With `CC1(C)C(c2ccc(C(=O)O)cc2)=CC[C@]2(C)CN(C(=O)c3ccccc3-c3nc4cc(C(=O)c5ccccc5)ccc4[nH]3)CC=C12` [Example A281] as the compound, how does the EC50 read?
A: 0.95 µM

Q: For `CC(C)C1(C(=O)N2CC=C3C(C)(C)C(c4ccc(C(=O)O)cc4)=CC[C@]3(C)C2)CCN(C(=O)OC(C)(C)C)CC1` [Example 49], which EC50 is on record?
A: 1.18 µM

Q: How did the EC50 turn out when `CC1(C)C(c2ccc(C(=O)O)cc2)=CC[C@]2(C)CN(c3ccccc3-c3nnn(CCN4CCS(=O)(=O)CC4)n3)CC=C12` [Example B6] was run?
A: 0.045 µM

Q: `CC1(C)C(c2ccc(C(=O)O)cc2)=CC[C@]2(C)CN(C(=O)c3ccccc3-c3nc4ccccc4n3CC34CCN(CC3)CC4)CC=C12` [Example A275] was tested. Which EC50 did it give?
A: 1.7 µM

Q: How did the EC50 turn out when `CC(C)C[C@H](NC(=O)OC(C)(C)C)C(=O)N1CCC(C(=O)N2CC=C3C(C)(C)[C@@H](c4ccc(C(=O)O)cc4)CC[C@]3(C)C2)(c2ccccc2)CC1` [Example 89] was run?
A: 0.067 µM

Q: With `CC(C)(C)OC(=O)N[C@H](C(=O)N1CCC(C(=O)N2CC=C3C(C)(C)C(c4ccc(C(=O)O)cc4)=CC[C@]3(C)C2)(c2ccccc2)CC1)C(C)(C)C` [Example A219] as the compound, how does the EC50 read?
A: 0.15 µM

Q: `COc1cccc2oc(-c3ccccc3C(=O)N3CC=C4C(C)(C)C(c5ccc(C(=O)O)cc5)=CC[C@]4(C)C3)nc12` [Example A311] was tested. Which EC50 did it give?
A: 0.218 µM

Q: With `CC1(C)C(c2ccc(C(=O)O)cc2)=CC[C@]2(C)CN(C(=O)C3(c4ccccc4)CCN(C(=O)CCN4CCS(=O)(=O)CC4)CC3)CC=C12` [Example 95] as the compound, how does the EC50 read?
A: 2.7 µM

Q: Which EC50 does the source give for `CC(C)(C)OC(=O)N1CCC(C)(C(=O)N2CC=C3C(C)(C)C(c4ccc(C(=O)O)cc4)=CC[C@]3(C)C2)CC1` [Example 48] here?
A: 0.27 µM

Q: Which EC50 does the source give for `Cc1ccc2oc(-c3ccccc3C(=O)N3CC=C4C(C)(C)C(c5ccc(C(=O)O)cc5)=CC[C@]4(C)C3)nc2c1` [Example A309] here?
A: 0.171 µM

Q: `CC1(C)C(c2ccc(C(=O)O)cc2)=CC[C@@]2(C)CN(C(=O)c3cccc4c3C(=O)c3ccccc3-4)CC=C12` [Example A30] was tested. Which EC50 did it give?
A: 1.08 µM

Q: How did the EC50 turn out when `CC1(C)C(c2ccc(C(=O)O)cc2)=CC[C@]2(C)CN(C(=O)c3ccccc3-c3nc4cc(Br)c(Br)cc4[nH]3)CC=C12` [Example 99, (S)-4-(2-(2-(5,6-dibromo-1H-benzo[d]imidazol-2-yl)benzoyl)-5,5,8a-trimethyl-1,2,3,5,8,8a-hexahydroisoquinolin-6-yl)benzoic acid] was run?
A: 0.016 µM

Q: How did the EC50 turn out when `CC1(C)C(c2ccc(C(=O)O)cc2)=CC[C@]2(C)CN(C(=O)c3ccccc3-c3nc4c(Cl)cc(Cl)cc4[nH]3)CC=C12` [Example A268] was run?
A: 0.014 µM

Q: Which EC50 does the source give for `Cn1nc(-c2ccccc2)c(C(=O)N2CC=C3C(C)(C)C(c4ccc(C(=O)O)cc4)=CC[C@]3(C)C2)c1Cl` [Example A79] here?
A: 0.87 µM

Q: For `CC(C)(C)OC(=O)N1CCN(c2ccccc2C(=O)N2CC=C3C(C)(C)C(c4ccc(C(=O)O)cc4)=CC[C@]3(C)C2)CC1` [Example 11, (S)-4-(2-(2-(4-(tert-butoxycarbonyl)piperazin-1-yl)benzoyl)-5,5,8a-trimethyl-1,2,3,5,8,8a-hexahydroisoquinolin-6-yl)benzoic acid], which EC50 is on record?
A: 0.46 µM

Q: With `CC1(C)C(c2ccc(C(=O)O)cc2)=CC[C@]2(C)CN(c3cc(O)cc(-c4nnn(CCN5CCS(=O)(=O)CC5)n4)c3)CC=C12` [Example B9] as the compound, how does the EC50 read?
A: 1.17 µM

Q: With `CC1(C)C(c2ccc(C(=O)O)cc2)=CC[C@]2(C)CN(C(=O)c3ccccc3N3CCNCC3)CC=C12` [Example 51, (S)-4-(5,5,8a-trimethyl-2-(2-(piperazin-1-yl)benzoyl)-1,2,3,5,8,8a-hexahydroisoquinolin-6-yl)benzoic acid] as the compound, how does the EC50 read?
A: 0.87 µM

Q: `CC1(C)C(c2ccc(C(=O)O)cc2)=CC[C@]2(C)CN(C(=O)c3ccccc3-c3nc4cc5c(cc4[nH]3)OCO5)CC=C12` [Example A298] was tested. Which EC50 did it give?
A: 0.06 µM

Q: Which EC50 does the source give for `CC1(C)C(c2ccc(C(=O)O)cc2)=CC[C@]2(C)CN(C(=O)c3ccccc3N3CCOCC3)CC=C12` [Example 26] here?
A: 0.63 µM

Q: How did the EC50 turn out when `CC(C)C[C@H](NC(=O)OC(C)(C)C)C(=O)N1CCC(C(=O)N2CC[C@H]3C(C)(C)[C@@H](c4ccc(C(=O)O)cc4)CC[C@]3(C)C2)(c2ccccc2)CC1` [Example 87] was run?
A: 0.101 µM

Q: How did the EC50 turn out when `CN1CCN(c2ccc(C(=O)N3CC=C4C(C)(C)C(c5ccc(C(=O)O)cc5)=CC[C@]4(C)C3)cc2)CC1` [Example 30] was run?
A: 2.27 µM

Q: How did the EC50 turn out when `CC1(C)C(c2ccc(C(=O)O)cc2)=CC[C@]2(C)CN(C(=O)c3cscc3C(=O)N3CC=C4C(C)(C)C(c5ccc(C(=O)O)cc5)=CC[C@]4(C)C3)CC=C12` [Example 64] was run?
A: 1.06 µM

Q: `COc1ccc2oc(-c3ccccc3C(=O)N3CC=C4C(C)(C)C(c5ccc(C(=O)O)cc5)=CC[C@]4(C)C3)nc2c1` [Example A320] was tested. Which EC50 did it give?
A: 0.183 µM

Q: `Cc1ncc(C)n2nc(-c3ccc4c(c3)nc(-c3ccccc3C(=O)N3CC=C5C(C)(C)C(c6ccc(C(=O)O)cc6)=CC[C@]5(C)C3)n4C)nc12` [Example A278] was tested. Which EC50 did it give?
A: 4.96 µM
